Experiments:
WistarF/Han (WF) rats [1] = assay: Response to novelty (open field test) after i.c.v. treatment; type: in vivo
Experimental: (§1) Animals. Male WistarF/Han (WF) rats (Central Animal Laboratory, Hannover Medical School, Hannover, Germany, see http://www.mh-hannover.de/institut/tierlabor/wf.htm for details), weighing 350-390g, were housed in a sound-proof, temperature controlled (24.0±0.5°C) room under specific pathogen free conditions with a 12/12h dark/light cycle (lights on at 07.00 with illumination level of 80 Lux). Food (Altromin lab chow pellets) and tap water were available ad libitum. Under ketamine/xylasine (100/5 mg/kg, i.p.) anesthesia, the rats were fixed in a Kopf stereotaxic frame and implanted with cannulae (Plastic One, Inc., Roanoke, VA, USA) above the lateral ventricle. All research and animal care procedures were approved by the Lower Saxony district government (Hannover, Germany) and followed principles described in the European Community's Council Directive of 24 November 1986 (86/609/EEC).
Surgery and i.c.v. application. For surgery, rats were anesthetized and prepared with i.c.v. cannulaes (coordinates: A:-0.7mm caudal, L:1.4mm lateral to bregma; and V:3.2mm ventral to the skull surface; tooth bar +3.0 above ear bars) using standard stereotaxic procedures as described in detail elsewhere (von Hörsten et al., 1998a,b,c). […]
Response to novelty (Open field test). […] Spontaneous activity during a single continuous test session of 15min was recorded using a video path analyzer system (E61-21 Video Path Analyser system, Coulboum instruments, PA, U.S.A.). […] Furthermore, the total incidence of fecal boli was counted after each session and the incidence and duration (sec) of grooming behavior was simultaneously recorded from a video monitor by a person blind to the treatment of the animals (von Hörsten et al., 1998c).
Statistical analysis. For statistical analysis, behavioral raw data from every test minute were analyzed by two-way analyses of variance (ANOVA) for repeated measures (factors: treatment and time as a repeated measurement). Data obtained as totals from a session were analyzed by one-way (factor: treatment) ANOVA. […]

WistarF/Han (WF) rats [2] = assay: 1h and 12h food intake after combined i.c.v. treatment (Example 3); type: in vivo; settings: Fig. 8
Experimental: as §1, with “330-370g,” for “350-390g,”
Surgery and i.c.v. application. For surgery, rats were anesthetized and prepared with i.c.v. cannulae (coordinates: A:-0.7mm caudal, L:1.4mm lateral to bregma; and V3.2mm ventral to the skull surface; tooth bar +3.0 above ear bars) using standard stereotaxic procedures as described in detail elsewhere (von Hörsten et al., 1998a,b,c). After a 7-day recovery period, successful ventricle cannulation was confirmed by an angiotensin drinking response (von Hörsten et al., 1998a). Rats showing a positive drinking response (n=59) were then habituated to experimental handling by daily sham injections for seven days.
Animals were randomly divided into two sets of four experimental groups (n=5-6/group), which completed different consecutive SI test of anxiety. […] The time spent in active social interaction (SI-time), 1h and 12h food-intake were measured. […]
Statistical analysis. Data from repeated observations (food intake) were analyzed by two-way analyses of variance for repeated measures (ANOVA) (factors: "substrain" and "food intake" as repeated measure). Data obtained from simple measures such as DP IV activity or SI time were analyzed by one-way (factor: "substrain") ANOVA. […]

Structure (SMILES): CCC(C)C(N)C(=O)N1CCSC1 (centres unmarked) [isoleucyl thiazolidine]
- dosage already effective on time spent close to the wall (WistarF/Han (WF) rats [1]; Fig. 5): 50 pmol
- time spent close to the wall (WistarF/Han (WF) rats [1]; sum of four consecutive minutes of open field testing, Fig. 5): dose-dependent reduction
- activity in the open field (distance traveled) (WistarF/Han (WF) rats [1]; wide range of dosages (0.05nmol, 5nmol, 500nmol), 60 min before test, Fig. 4): no effect
- dose at which the 1h feeding effect reaches significance (WistarF/Han (WF) rats [2]): 0.05 nmol
- amount of food eaten within 1h (WistarF/Han (WF) rats [2]; single agents or combination, isoleucyl thiazolidine 5pmol-500nmol, NPY 50pmol-1.6nmol): mild feeding effect

Source: patent publication EP1891948A1, “Treatment of neurological and neuropsychological disorders” (Probiodrug AG, priority 2000, dated 2002)
